Data on three compounds can be found in PMC10865363, “Structural, Biochemical, and Computational Characterization of Sulfamides as Bimetallic Peptidase Inhibitors” (Journal of Chemical Information and Modeling, 2024).

For orientation: IC50 means the midpoint of a concentration-inhibition curve.

Each structure is given as a SMILES string. Structures can show the parent of a compound that is named as a salt.

Test [1] has as its target T1, Prostate-specific membrane antigen (PSMA) (Homo sapiens, UniProt Q04609).
T1 construct: gene FOLH1; extracellular part of human PSMA; amino acids 44–750
Nature of the test: radioenzymatic assay with 3H-NAAG, purified recombinant PSMA. Format: biochemical.

The target in test [2] is T1, Prostate-specific membrane antigen (PSMA). Put plainly: X-ray crystal structure ([…] Å); IC50 from radioenzymatic 3H-NAAG assay with purified enzyme. Type of test: biochemical.

T1 sequence (Q04609 44-750): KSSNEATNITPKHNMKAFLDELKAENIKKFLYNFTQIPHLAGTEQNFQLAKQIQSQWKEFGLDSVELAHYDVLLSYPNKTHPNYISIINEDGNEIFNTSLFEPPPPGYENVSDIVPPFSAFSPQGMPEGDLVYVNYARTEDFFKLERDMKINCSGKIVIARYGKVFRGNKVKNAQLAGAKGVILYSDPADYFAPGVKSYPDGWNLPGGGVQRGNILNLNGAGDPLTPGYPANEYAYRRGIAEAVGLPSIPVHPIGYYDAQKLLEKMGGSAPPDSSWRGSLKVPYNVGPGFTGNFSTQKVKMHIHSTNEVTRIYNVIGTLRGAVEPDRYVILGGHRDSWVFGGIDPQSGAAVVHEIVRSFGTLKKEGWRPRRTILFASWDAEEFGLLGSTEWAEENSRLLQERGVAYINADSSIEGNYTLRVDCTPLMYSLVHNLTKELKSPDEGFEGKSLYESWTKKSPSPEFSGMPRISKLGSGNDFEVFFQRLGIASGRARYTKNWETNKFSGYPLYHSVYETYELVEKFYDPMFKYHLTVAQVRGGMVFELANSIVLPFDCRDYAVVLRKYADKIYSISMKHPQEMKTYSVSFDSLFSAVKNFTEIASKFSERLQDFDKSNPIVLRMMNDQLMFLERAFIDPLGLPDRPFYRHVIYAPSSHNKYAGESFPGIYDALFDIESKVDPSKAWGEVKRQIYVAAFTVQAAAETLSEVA

Regarding `O=C(O)CC[C@H](NS(=O)(=O)N[C@@H](CCC(=O)O)C(=O)O)C(=O)O` [compound 4, (2S,2′S)-2,2′-(Sulfonylbis(azanediyl))dipentanedioic Acid], the IC50 in test [1] is 165 µM. As for `NS(=O)(=O)N[C@@H](CCC(=O)O)C(=O)O` [compound 9, monosubstituted glutamyl sulfamide 9], the IC50 in test [2] turned out to be 1.2 µM. As to `O=C(O)CC[C@H](NS(=O)(=O)N[C@@H](CC(=O)O)C(=O)O)C(=O)O` [compound 3, (S)-2-((N-((S)-1,2-Dicarboxyethyl)sulfamoyl)amino)pentanedioic Acid Tetrasodium Salt], the IC50 in test [1] was 103 µM.
